According to article PMC5218480 (PLoS ONE, 2017):

Test system: MV-4-11 cells
Test: Gene expression microarray analysis (Affymetrix PrimeView) and GSEA
Type: cell-based, human
Parameters: RFU PODN (11730768_x_at) / Fold change /veh PODN (11730768_x_at) / RFU LINC00158 (11744669_a_at) / Fold change /veh LINC00158 (11744669_a_at) / RFU DUSP10 (11751237_a_at) / Fold change /veh DUSP10 (11751237_a_at) / RFU ID3 (11757404_x_at) / Fold change /veh ID3 (11757404_x_at) / RFU PLEKHG5 (11737974_s_at) / Fold change /veh PLEKHG5 (11737974_s_at) / RFU LRRC4B (11730491_at) / Fold change /veh LRRC4B (11730491_at) / RFU GIMAP4 (11747438_a_at) / Fold change /veh GIMAP4 (11747438_a_at) / RFU KRT8 (11758183_x_at) / Fold change /veh KRT8 (11758183_x_at) / RFU CNN1 (11734310_a_at) / Fold change /veh CNN1 (11734310_a_at) / RFU VPS37D (11726825_at) / Fold change /veh VPS37D (11726825_at) / RFU C10orf10 (11716522_x_at) / Fold change /veh C10orf10 (11716522_x_at) / RFU KIR2DL2 /// KIR2DL4 /// KIR2DL5A /// KIR2DL5B /// KIR2DS1 /// KIR2DS2 /// KIR2DS3 /// KIR2DS4 /// KIR3DL3 /// KIR3DL3 /// KIR3DS1 (11738374_at) / Fold change /veh KIR2DL2 /// KIR2DL4 /// KIR2DL5A /// KIR2DL5B /// KIR2DS1 /// KIR2DS2 /// KIR2DS3 /// KIR2DS4 /// KIR3DL3 /// KIR3DL3 /// KIR3DS1 (11738374_at) / RFU C1QL1 (11718748_at) / Fold change /veh C1QL1 (11718748_at) / RFU TMPRSS4 (11747572_a_at) / Fold change /veh TMPRSS4 (11747572_a_at) / RFU HAMP (11756126_x_at) / Fold change /veh HAMP (11756126_x_at) / RFU RNFT2 (11725882_a_at) / Fold change /veh RNFT2 (11725882_a_at) / RFU NR4A2 (11747474_a_at) / Fold change /veh NR4A2 (11747474_a_at) / RFU ABCC12 (11746883_a_at) / Fold change /veh ABCC12 (11746883_a_at) / RFU TMEM136 (11760407_x_at) / Fold change /veh TMEM136 (11760407_x_at) / RFU CLDN22 /// WWC2 (11732394_at) / Fold change /veh CLDN22 /// WWC2 (11732394_at) / RFU HLA-DPB1 (11760878_x_at) / Fold change /veh HLA-DPB1 (11760878_x_at) / RFU SPINT1 (11716480_a_at) / Fold change /veh SPINT1 (11716480_a_at) / RFU GAP43 (11754022_s_at) / Fold change /veh GAP43 (11754022_s_at) / RFU A4GNT (11735810_at) / Fold change /veh A4GNT (11735810_at) / RFU PRB3 (11715151_x_at) / Fold change /veh PRB3 (11715151_x_at) / RFU TUBB4B (11761932_at) / Fold change /veh TUBB4B (11761932_at) / RFU CAPN14 (11732068_a_at) / Fold change /veh CAPN14 (11732068_a_at) / RFU TMCC2 (11721928_a_at) / Fold change /veh TMCC2 (11721928_a_at) / RFU IRGQ (11745062_a_at) / Fold change /veh IRGQ (11745062_a_at) / RFU FAM174B (11720279_a_at) / Fold change /veh FAM174B (11720279_a_at) / RFU TMPRSS4 (11748680_a_at) / Fold change /veh TMPRSS4 (11748680_a_at) / RFU FAM212B (11763350_a_at) / Fold change /veh FAM212B (11763350_a_at) / RFU PLEKHG5 (11743358_a_at) / Fold change /veh PLEKHG5 (11743358_a_at) / RFU ZSCAN30 (11745921_a_at) / Fold change /veh ZSCAN30 (11745921_a_at) / RFU CMKLR1 (11741424_a_at) / Fold change /veh CMKLR1 (11741424_a_at) / RFU LOC101060620 /// MAPK8IP1 (11723275_at) / Fold change /veh LOC101060620 /// MAPK8IP1 (11723275_at) / RFU SPTSSB (11747773_x_at) / Fold change /veh SPTSSB (11747773_x_at) / RFU PRSS12 (11739890_at) / Fold change /veh PRSS12 (11739890_at) / RFU BIN1 (11741810_x_at) / Fold change /veh BIN1 (11741810_x_at) / RFU WNT11 (11732464_a_at) / Fold change /veh WNT11 (11732464_a_at) / RFU C10orf10 (11716521_a_at) / Fold change /veh C10orf10 (11716521_a_at) / RFU C5orf56 (11738089_at) / Fold change /veh C5orf56 (11738089_at) / RFU CYB561 (11721691_x_at) / Fold change /veh CYB561 (11721691_x_at) / RFU ANKRD19P (11752326_a_at) / Fold change /veh ANKRD19P (11752326_a_at) / RFU OR2T12 /// OR2T33 /// OR2T8 (11738714_s_at) / Fold change /veh OR2T12 /// OR2T33 /// OR2T8 (11738714_s_at) / RFU VCAN (11748164_a_at) / Fold change /veh VCAN (11748164_a_at) / RFU JSRP1 (11732532_at) / Fold change /veh JSRP1 (11732532_at) / RFU KRTAP10-11 (11738290_x_at) / Fold change /veh KRTAP10-11 (11738290_x_at) / RFU MYO3A (11730013_a_at) / Fold change /veh MYO3A (11730013_a_at) / RFU EBF3 (11725865_a_at) / Fold change /veh EBF3 (11725865_a_at) / RFU CAMK2N1 (11719241_x_at) / Fold change /veh CAMK2N1 (11719241_x_at) / RFU C5orf56 (11738088_a_at) / Fold change /veh C5orf56 (11738088_a_at) / RFU OLFML3 (11715873_a_at) / Fold change /veh OLFML3 (11715873_a_at) / RFU LOC100653217 /// NTM (11731650_a_at) / Fold change /veh LOC100653217 /// NTM (11731650_a_at) / RFU MAPK11 (11762145_a_at) / Fold change /veh MAPK11 (11762145_a_at) / RFU FIZ1 (11724087_x_at) / Fold change /veh FIZ1 (11724087_x_at) / RFU OASL (11726364_x_at) / Fold change /veh OASL (11726364_x_at) / RFU SOX15 (11748057_x_at) / Fold change /veh SOX15 (11748057_x_at) / RFU CD79A (11719716_a_at) / Fold change /veh CD79A (11719716_a_at) / RFU HIST1H1D (11736915_at) / Fold change /veh HIST1H1D (11736915_at) / RFU CASKIN2 (11723855_a_at) / Fold change /veh CASKIN2 (11723855_a_at) / RFU LOC730098 (11760151_x_at) / Fold change /veh LOC730098 (11760151_x_at) / RFU OR4N2 (11742367_at) / Fold change /veh OR4N2 (11742367_at) / RFU PRRT2 (11749266_a_at) / Fold change /veh PRRT2 (11749266_a_at) / RFU SNX32 (11753110_a_at) / Fold change /veh SNX32 (11753110_a_at) / RFU CDHR5 (11726645_a_at) / Fold change /veh CDHR5 (11726645_a_at) / RFU RCAN1 (11760418_a_at) / Fold change /veh RCAN1 (11760418_a_at) / RFU FAM167A (11723789_a_at) / Fold change /veh FAM167A (11723789_a_at) / RFU FAM26E (11764081_at) / Fold change /veh FAM26E (11764081_at) / RFU ISYNA1 (11749810_s_at) / Fold change /veh ISYNA1 (11749810_s_at) / RFU ACY1 (11761880_at) / Fold change /veh ACY1 (11761880_at) / RFU 11764098_at / Fold change /veh 11764098_at / RFU SAMD14 (11745864_x_at) / Fold change /veh SAMD14 (11745864_x_at) / RFU NPB (11741838_a_at) / Fold change /veh NPB (11741838_a_at) / RFU TMPRSS6 (11731388_a_at) / Fold change /veh TMPRSS6 (11731388_a_at) / RFU KRTAP10-2 (11738614_at) / Fold change /veh KRTAP10-2 (11738614_at) / RFU ARHGAP8 /// PRR5-ARHGAP8 (11727945_x_at) / Fold change /veh ARHGAP8 /// PRR5-ARHGAP8 (11727945_x_at) / RFU KRTAP5-7 /// NADSYN1 (11734609_at) / Fold change /veh KRTAP5-7 /// NADSYN1 (11734609_at) / RFU RASL12 (11751679_a_at) / Fold change /veh RASL12 (11751679_a_at) / RFU CDKN2B (11736163_a_at) / Fold change /veh CDKN2B (11736163_a_at) / RFU PRF1 (11729649_at) / Fold change /veh PRF1 (11729649_at) / RFU, ZNF638 /// ZNF638-IT1 / Fold change vs veh, ZNF638 /// ZNF638-IT1 / RFU, PANK3 / Fold change vs veh, PANK3 / RFU, SH3YL1 / Fold change vs veh, SH3YL1 / RFU, ZEB2 / Fold change vs veh, ZEB2 / RFU, NRIP1 / Fold change vs veh, NRIP1 / RFU, PTTG1IP / Fold change vs veh, PTTG1IP / RFU, CAPN2 / Fold change vs veh, CAPN2 / RFU, MED14 / Fold change vs veh, MED14 / RFU, SNORA58 / Fold change vs veh, SNORA58 / RFU, C1orf63 / Fold change vs veh, C1orf63 / RFU, LRRFIP1 / Fold change vs veh, LRRFIP1 / RFU, NDUFAF7 / Fold change vs veh, NDUFAF7 / RFU, SLC12A2 / Fold change vs veh, SLC12A2 / RFU, IBTK / Fold change vs veh, IBTK / RFU, ESF1 / Fold change vs veh, ESF1 / Fold change vs veh, TMEM50B / RFU, TAOK1 / Fold change vs veh, TAOK1 / RFU, ACBD3 / Fold change vs veh, ACBD3 / RFU, TMA16 / Fold change vs veh, TMA16 / RFU, RWDD3 / Fold change vs veh, RWDD3 / RFU, BCAT1 / Fold change vs veh, BCAT1 / RFU, EDEM3 / Fold change vs veh, EDEM3 / RFU, TMEM33 / Fold change vs veh, TMEM33 / RFU, WDR75 / Fold change vs veh, WDR75 / RFU, AHCTF1 / Fold change vs veh, AHCTF1 / RFU, TFRC / Fold change vs veh, TFRC / RFU, ZDHHC17 / Fold change vs veh, ZDHHC17 / RFU, NOM1 / Fold change vs veh, NOM1 / RFU, ARL8B / Fold change vs veh, ARL8B / RFU, ZBTB11 / Fold change vs veh, ZBTB11 / RFU, TAMM41 / Fold change vs veh, TAMM41 / RFU, KIAA1704 /// LOC100996395 / Fold change vs veh, KIAA1704 /// LOC100996395 / RFU, ING1 / Fold change vs veh, ING1 / RFU, TRMT61B / Fold change vs veh, TRMT61B / RFU, FUBP3 / Fold change vs veh, FUBP3 / RFU, TP53 / Fold change vs veh, TP53 / RFU, TNKS2 / Fold change vs veh, TNKS2 / RFU, ZFP14 / Fold change vs veh, ZFP14 / RFU, ACTR2 / Fold change vs veh, ACTR2 / RFU, PPP3R1 / Fold change vs veh, PPP3R1 / RFU, PIK3R1 / Fold change vs veh, PIK3R1 / RFU, HNRNPA1 / Fold change vs veh, HNRNPA1 / RFU, RNF170 / Fold change vs veh, RNF170 / RFU, ZNF28 / Fold change vs veh, ZNF28 / RFU, RNGTT / Fold change vs veh, RNGTT / RFU, OGT / Fold change vs veh, OGT / RFU, BRD1 / Fold change vs veh, BRD1 / RFU, MARS / Fold change vs veh, MARS / RFU, ZNF655 / Fold change vs veh, ZNF655 / RFU, FAHD1 / Fold change vs veh, FAHD1 / RFU, BDP1 / Fold change vs veh, BDP1 / RFU, LRRCC1 / Fold change vs veh, LRRCC1 / RFU, ARID1A / Fold change vs veh, ARID1A / RFU, ZNF146 / Fold change vs veh, ZNF146 / RFU, ZNF330 / Fold change vs veh, ZNF330 / RFU, GPN3 / Fold change vs veh, GPN3 / RFU, C9orf123 / Fold change vs veh, C9orf123 / RFU, N4BP2L2 / Fold change vs veh, N4BP2L2 / RFU, ARFIP1 / Fold change vs veh, ARFIP1 / RFU, FAM179B / Fold change vs veh, FAM179B / RFU, BCL10 / Fold change vs veh, BCL10 / RFU, UHRF1BP1L / Fold change vs veh, UHRF1BP1L / RFU, BET1 / Fold change vs veh, BET1 / RFU, CNOT2 / Fold change vs veh, CNOT2 / RFU, ZNF268 / Fold change vs veh, ZNF268 / Fold change vs veh, ZNF507 / RFU, DGCR2 / Fold change vs veh, DGCR2 / RFU, WDSUB1 / Fold change vs veh, WDSUB1 / Fold change vs veh, HSP90B1 /// MIR3652 / RFU, ADSS / Fold change vs veh, ADSS / RFU, GK / Fold change vs veh, GK / RFU, ZNF148 / Fold change vs veh, ZNF148 / RFU, TAF9 / Fold change vs veh, TAF9 / RFU, SLC1A5 / Fold change vs veh, SLC1A5 / RFU, SLMO2 / Fold change vs veh, SLMO2 / RFU, ABCC4 / Fold change vs veh, ABCC4 / RFU, LOC101060439 /// RAP1B / Fold change vs veh, LOC101060439 /// RAP1B / RFU, RFX7 / Fold change vs veh, RFX7 / RFU, GTPBP10 / Fold change vs veh, GTPBP10 / RFU, CNEP1R1 / Fold change vs veh, CNEP1R1 / RFU, BIVM-ERCC5 /// ERCC5 / Fold change vs veh, BIVM-ERCC5 /// ERCC5 / RFU, ILF3 / Fold change vs veh, ILF3 / RFU 11762660_at / Fold change /veh 11762660_at / RFU VCAN (11757783_s_at) / Fold change /veh VCAN (11757783_s_at) / RFU DDX43 (11728927_at) / Fold change /veh DDX43 (11728927_at) / RFU KRT8 (11758188_x_at) / Fold change /veh KRT8 (11758188_x_at) / RFU NKD1 (11759106_at) / Fold change /veh NKD1 (11759106_at) / RFU SRD5A1 (11742802_a_at) / Fold change /veh SRD5A1 (11742802_a_at) / RFU TPSAB1 /// TPSB2 (11721975_s_at) / Fold change /veh TPSAB1 /// TPSB2 (11721975_s_at) / RFU GSTM3 (11746129_a_at) / Fold change /veh GSTM3 (11746129_a_at) / RFU IL23R (11737362_x_at) / Fold change /veh IL23R (11737362_x_at) / RFU TMEM51 (11727254_a_at) / Fold change /veh TMEM51 (11727254_a_at) / RFU PIWIL2 (11732686_x_at) / Fold change /veh PIWIL2 (11732686_x_at) / RFU ORM1 (11744905_x_at) / Fold change /veh ORM1 (11744905_x_at) / RFU CCDC152 (11743942_at) / Fold change /veh CCDC152 (11743942_at) / RFU ECM1 (11717891_a_at) / Fold change /veh ECM1 (11717891_a_at) / RFU IL23R (11748794_a_at) / Fold change /veh IL23R (11748794_a_at) / RFU TNFAIP8L3 (11732012_x_at) / Fold change /veh TNFAIP8L3 (11732012_x_at) / RFU MBOAT4 (11741988_at) / Fold change /veh MBOAT4 (11741988_at) / RFU 11764193_at / Fold change /veh 11764193_at / RFU TMEM53 (11763286_at) / Fold change /veh TMEM53 (11763286_at) / RFU MAGEB2 (11727129_at) / Fold change /veh MAGEB2 (11727129_at) / RFU TMEM200A (11744735_a_at) / Fold change /veh TMEM200A (11744735_a_at) / RFU CCDC152 (11751479_a_at) / Fold change /veh CCDC152 (11751479_a_at) / RFU FAM211A (11726209_a_at) / Fold change /veh FAM211A (11726209_a_at) / RFU RGS16 (11746705_a_at) / Fold change /veh RGS16 (11746705_a_at) / RFU VCAN (11755009_s_at) / Fold change /veh VCAN (11755009_s_at) / RFU RHOB (11743442_s_at) / Fold change /veh RHOB (11743442_s_at) / RFU RGS16 (11720943_a_at) / Fold change /veh RGS16 (11720943_a_at) / RFU RGS16 (11720944_at) / Fold change /veh RGS16 (11720944_at) / RFU, VPS4B / Fold change vs veh, VPS4B / RFU, CREB1 / Fold change vs veh, CREB1 / RFU, DNAJC13 / Fold change vs veh, DNAJC13 / RFU, GNAQ / Fold change vs veh, GNAQ / RFU, CDK5R1 / Fold change vs veh, CDK5R1 / RFU, ZRANB3 / Fold change vs veh, ZRANB3 / RFU, CUL4A / Fold change vs veh, CUL4A / RFU, CCNY / Fold change vs veh, CCNY / RFU, UFL1 / Fold change vs veh, UFL1 / RFU, COG3 / Fold change vs veh, COG3 / RFU, DIAPH2 / Fold change vs veh, DIAPH2 / RFU, SKA2 / Fold change vs veh, SKA2 / RFU, AFF3 / Fold change vs veh, AFF3 / RFU, LMF1 / Fold change vs veh, LMF1 / RFU, IPO11 / Fold change vs veh, IPO11 / RFU, DFFB / Fold change vs veh, DFFB / RFU, FOXP1 / Fold change vs veh, FOXP1 / RFU, CARD8 / Fold change vs veh, CARD8 / RFU, STRN3 / Fold change vs veh, STRN3 / RFU, ADK / Fold change vs veh, ADK / RFU, RASSF2 / Fold change vs veh, RASSF2 / RFU, WIPF1 / Fold change vs veh, WIPF1 / RFU, LARP1B / Fold change vs veh, LARP1B / RFU, RASA1 / Fold change vs veh, RASA1 / RFU, RB1 / Fold change vs veh, RB1 / RFU, PPFIA1 / Fold change vs veh, PPFIA1 / RFU, MAT2A / Fold change vs veh, MAT2A / RFU, CCT5 / Fold change vs veh, CCT5 / RFU, WDR92 / Fold change vs veh, WDR92 / RFU, CUX1 / Fold change vs veh, CUX1 / RFU, TTC7A / Fold change vs veh, TTC7A / RFU, TMEM135 / Fold change vs veh, TMEM135 / RFU, DEPTOR / Fold change vs veh, DEPTOR / RFU, CPM / Fold change vs veh, CPM / RFU, DNAJB6 / Fold change vs veh, DNAJB6 / RFU, CACNA2D3 / Fold change vs veh, CACNA2D3 / RFU, DTX4 / Fold change vs veh, DTX4 / RFU, TFCP2 / Fold change vs veh, TFCP2 / RFU, GMCL1 /// GMCL1P1 / Fold change vs veh, GMCL1 /// GMCL1P1 / RFU, AEBP2 / Fold change vs veh, AEBP2 / RFU, SNHG1 /// SNORD22 /// SNORD25 /// SNORD26 /// SNORD27 /// SNORD28 /// SNORD29 /// SNORD31 / Fold change vs veh, SNHG1 /// SNORD22 /// SNORD25 /// SNORD26 /// SNORD27 /// SNORD28 /// SNORD29 /// SNORD31 / Fold change (Aza/veh), C12orf56 (ProbeSet 11735607_a_at) / Fold change (ACY-1035/veh), C12orf56 (ProbeSet 11735607_a_at) / Fold change (Aza/veh), FGFR1OP (ProbeSet 11751329_s_at) / Fold change (ACY-1035/veh), FGFR1OP (ProbeSet 11751329_s_at) / Fold change (Aza/veh), VPS36 (ProbeSet 11739960_a_at) / Fold change (ACY-1035/veh), VPS36 (ProbeSet 11739960_a_at) / RFU SYPL1 (11715823_x_at) / Fold change /veh SYPL1 (11715823_x_at) / RFU IGFBP7 (11715501_s_at) / Fold change /veh IGFBP7 (11715501_s_at) / RFU REEP3 (11722064_at) / Fold change /veh REEP3 (11722064_at) / RFU IGLL1 (11728026_x_at) / Fold change /veh IGLL1 (11728026_x_at): dose or concentration left out as unconfirmed
Details: ProbeSet 11725141_a_at; LIST B

`Nc1ccc(-c2cccs2)cc1NC(=O)c1ccc2c(c1)cc(C1CC1)n2CCN1CCOCC1` [ACY-1035] was tested, and the “Fold change vs veh, FUBP3” value was 0.87.
